Assay results as given in ChEMBL document CHEMBL3832026.
Several values for one entry are separate records, joined by “and”; a condition that tells them apart may be missing. Identical values can stand only once.

Legend:
Assay type in all cases: ADME, organism-based
[1] = (§1) Mean pharmacokinetic parameters of Mycophenolic acid following single oral administration of Mycophenolic acid delayed-release tablets to adult or pediatric (age range 5 to 16 years) renal transplant patients on Cyclosporine, USP MODIFIED based immunosuppression; set-up: dose 450 mg/m-2, dose 1 g, dose 720 mg, route oral; conditions: human, in vivo
Homo sapiens [2] = assay: as §1; set-up: dose 450 mg/m-2, dose 1 g, dose 720 mg, route oral; conditions: in vivo
[3] = (§2) Pharmacokinetic parameters of Mycophenolic acid following administration of 360 to 2160 mg Mycophenolic acid delayed-release tablets to renal transplant patients on Cyclosporine, USP MODIFIED based immunosuppression.; conditions: human, in vivo, po
Homo sapiens [4] = assay: as §2; conditions: in vivo, po
[5] = (§3) Mean pharmacokinetic parameters of Mycophenolic acid following multiple dose administration of 720 mg Mycophenolic acid delayed-release tablets to adult renal transplant patients on Cyclosporine, USP MODIFIED based immunosuppression; set-up: dose 720 mg, route oral; conditions: human, in vivo, po, 720 mg
Homo sapiens [6] = assay: as §3; set-up: dose 720 mg, route oral; conditions: in vivo, po

## COc1c(C)c2c(c(O)c1C/C=C(\C)CCC(=O)O)C(=O)OC2 [MYCOPHENOLIC ACID]
[1]
  Cmax: 36300 ng/mL
  Tmax: 2.5 h
[1]; dosed compound id 90, dosed compound name MYCOPHENOLATE MOFETIL, regimen Single dose, tissue Plasma, read-out: AUC(0-48)
  AUC: 42700 ng·h/mL
[1]; read-out: AUC(0 to inf)
  AUC: 74300 ng·h/mL
Homo sapiens [2]
  AUC(0 to inf): 66500 ng·h/mL
  Cmax: 26100 ng/mL
  Tmax: 2 h
Homo sapiens [2]; dosed compound id 90, dosed compound name MYCOPHENOLATE MOFETIL, regimen Single dose, tissue Plasma
  AUC(0-48): 48300 ng·h/mL
[3]
  CL/F: 140 mL/min
Homo sapiens [4]
  Vd: 112 L
  Vss: 54 L
[5]
  Tmax: 2 h
Homo sapiens [6]
  AUC(0-12): 57.4 mcg.hr/mL [middle of 6 runs]
  Cmax: 26.2 mcg/mL [middle of 5 runs]
  Tmax: 1.5 h and 2.5 h and 1.8 h
